How the values were obtained:
[1] = Stability in acetate buffer pH 5.0 at room temperature via HPLC (UV); format: physicochemical
Description: (§1) Stability studies were conducted in PBS and acetate buffer utilizing high performance liquid chromatography for potential drug storage considerations. […]
(§2) All experiments were performed in duplicate and results are presented as the average of two experimental replicates.
(§3) 1.1 Aqueous Stability in PBS and Acetate Buffer via HPLC
(§4) Material and Instrumentation
(§5) HPLC grade acetonitrile (MeCN) […] HPLC grade water (H 2O), and formic acid (FA) were purchased from Fisher Scientific.
(§6) Puradisc 4 mm PTFE (0.45 μm) syringe filters from Cytiva. Gibco ® Dulbecco’s phosphate-buffered saline (DPBS 1X, no calcium, no magnesium, pH = 7.03) and acetate buffer (pH = 5.0, 10 mM) were purchased directly from Thermo Fisher Scientific and Cytiva, respectively.
(§7) Aqueous stability experiments were performed on an Agilent 1100 HPLC equipped with an Agilent G1315B diode array detector, an Agilent G1316A heated column compartment, and a Zorbax Eclipse XDB-C18 (4.6 x 150 mm, 5 μm) column.
(§8) Procedure for Aqueous Stability Experiments
(§9) Each sample was first weighed out in two separate 2.0 mL vials using an analytical balance.
(§10) Unless otherwise specified, the test compounds were then dissolved in the aqueous media (PBS or acetate buffer) at a standard concentration of 1 mg/mL. All mixtures were subsequently sonicated for approximately 30 sec. […]
(§11) min), precipitates observed in sample solutions were filtered with a PTFE syringe filter prior to analysis. Immediately after sample preparation, injection by the HPLC autosampler was performed, which was recorded as the initial time point (t = 0 min). Solutions were then kept in the autosampler at RT and reinjected at designated intervals without additional filtration or sample modification. Remaining prodrug was defined by the area under the curve (AUC) at 254 nm. Aqueous stability was ascertained by calculating the percentage of the parent compound remaining after each time point. Linear regression of the time (x-axis) vs. ln(%remaining) (y-axis) plot afforded the rate constant k (slope = -k). Pseudo first-order half-lives were then calculated by the following equation: t1/2 = 0.693/k.

[2] = Stability in PBS at room temperature via HPLC (UV); format: physicochemical; details: phosphate-buffered saline (DPBS)
Description: as §1, §2, §3, §4, §5, §6, §7, §8, §9, §10, §11

[3] = PBS stability assay at 37 °C via LC-MS/MS; format: physicochemical; details: for half-life at 3 µM / remaining at 2 h, 3 µM: phosphate-buffered saline (DPBS); for half-life at 3 µM: pH 7.03, PBS; for PBS, 37 °C %rem. at 2h (Table S23) / half-life at 3 µM / remaining at 2 h, 3 µM: 37 °C; for remaining at 2 h, 3 µM: pH 7.03, read-out: % Remaining @ 2h, PBS, 37 °C (Tables S25, S26); for PBS, 37 °C %rem. at 2h (Table S23) / remaining at 2 h, 3 µM / Prodrug stability / self-immolation in buffer, in words: PBS
[4] = Plasma stability assay at 37 °C via LC-MS/MS, human plasma; format: in vitro ADME; details: for half-life at 3 µM: human, plasma;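 for all read-outs here: prodrugs at 3 µM incubated in human plasma at 37 °C, intact prodrug quantified by LC-MS/MS over time, values are means of duplicate runs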
Description: To address this, prodrug stability was further evaluated in human plasma at 37 °C using liquid chromatography–tandem mass spectrometry (LC-MS/MS). For direct comparison, a parallel screen was conducted in PBS under identical conditions (Table ). To prevent premature degradation prior to LC-MS/MS analysis, acetonitrile containing formic acid was used as a quenching solution to acidify and stabilize the prodrugs in vials. […] This limitation in detection, along with the need for a more uniform and broadly applicable assessment across all compounds, prompted us to monitor the formation of the parent oxime as an alternative readout.
Stability experiments in human plasma and PBS were performed via liquid chromatography-tandem mass spectrometry (LC-MS/MS) to determine and compare rate of cleavage of progesterone prodrugs as well as selected allopregnanolone prodrugs (3 µM) when incubated at 37 °C. All experiments were performed in duplicate and results are presented as the average of two experimental replicates.

[5] = Aqueous solubility by visual inspection in acetate buffer (pH 5); details: for solubility: sodium acetate buffer, pH 5, aqueous buffer, thermodynamic from solid; for Stability in aqueous media during solubility assessment, in words: aqueous media (acetate buffer)
Description: For the solubility assessment, acetate buffer (pH 5) was selected as the media of choice to ensure prodrug stability during analysis.
High aqueous solubility was determined by visual inspection of 5 mg solid material in 0.5 mL
sodium acetate buffer solution. This media was selected to ensure stability of prodrugs during
dissolution in 50 mg/mL aqueous media.

[6] = pH 5, acetate buffer pH 5.0, RT, 1 mg/mL, HPLC 254 nm, read-out: t1/2 in acetate buffer at RT (Tables S5-S8) (converted)
[7] = pH 5, acetate buffer pH 5.0, rt, HPLC (UV), read-out: Half-life (t½) pH 5.0 rt (converted)
[8] = pH 5, acetate buffer pH 5.0, rt, read-out: t½: pH 5.0, rt (Table S23) (converted)
[9] = pH 7.03, DPBS pH 7.03, RT, 1 mg/mL, HPLC 254 nm, read-out: t1/2 in PBS buffer at RT (Tables S1-S4) (converted)
[10] = pH 7.03, PBS, rt, HPLC (UV), read-out: Half-life (t½) PBS rt (converted)
[11] = pH 7.03, PBS, rt, read-out: t½: PBS, rt (Table S23) (converted)
[12] = 3 µM, LC-MS/MS, read-out: t1/2 in PBS at 37 °C (Tables S14-S17) (converted)
[13] = LC-MS/MS, read-out: Half-life (t½) PBS 37°C (converted)
[14] = read-out: PBS, 37 °C t½ (Table S23) (converted)
[15] = read-out: t1/2 (h) PBS, 37 °C (Tables S25, S26) (converted)
[16] = 3 µM, LC-MS/MS, read-out: t1/2 in human plasma at 37 °C (Tables S10-S13, S18) (converted)
[17] = LC-MS/MS, read-out: Half-life (t½) Plasma 37°C (converted)
[18] = read-out: Plasma, 37 °C t½ (Table S23) (converted)
[19] = unit not given (h in Table S23), read-out: t1/2 of allopregnanolone prodrugs in PBS at 37 °C (Table S22) (converted)
[20] = unit not given (h in Table S23), read-out: t1/2 of allopregnanolone prodrugs in human plasma at 37 °C (Table S21) (converted)

SMILES	half-life at 1 mg/mL [1, 6] [h]	half-life at 1 mg/mL [1, 8] [h]	half-life at 1 mg/mL [2, 9] [h]	half-life at 1 mg/mL [2, 11] [h]	PBS, 37 °C %rem. at 2h (Table S23) [3] [%]	half-life at 3 µM [3, 12] [h]	half-life at 3 µM [3, 13] [h]	half-life at 3 µM [3, 14] [h]	Plasma, 37 °C %rem. at 2h (Table S23) [4]	half-life at 3 µM [4, 17] [h]	half-life at 3 µM [4, 18] [h]	solubility [5] [µg/mL]	half-life at 3 µM [3, 19] [h]	half-life at 3 µM [4, 20] [h]	further results
CNCCN(C(=O)O/N=C(\C)[C@H]1CC[C@H]2[C@@H]3CCC4=CC(=O)CC[C@]4(C)[C@H]3CC[C@]12C)C(C)C.O=C(O)C(F)(F)F [20c]	> 168	> 168	19.7 ± 0.38	19.7	53	3.27	3.27	3.27	47%	1.59	1.59	> 10000			half-life at 1 mg/mL [1, 7]: > 168 h; half-life at 1 mg/mL [2, 10]: 19.7 h; half-life at 3 µM [3, 15]: 3.27 h; remaining at 2 h, 3 µM [3]: 53%; half-life at 3 µM [4, 16]: 1.59 h
CNCCN(C(=O)O/N=C(\C)[C@H]1CC[C@H]2[C@@H]3CCC4=CC(=O)CC[C@]4(C)[C@H]3CC[C@]12C)C1CCC1.O=C(O)C(F)(F)F [20d]	> 168	> 168	11.8 ± 0.51	11.8	44	2.32	2.32	2.32	59%	2.67	2.67	> 10000			half-life at 1 mg/mL [1, 7]: > 168 h; half-life at 1 mg/mL [2, 10]: 11.8 h; half-life at 3 µM [3, 15]: 2.32 h; remaining at 2 h, 3 µM [3]: 44%; half-life at 3 µM [4, 16]: 2.67 h
CNCCN(C(=O)O/N=C(\C)[C@H]1CC[C@H]2[C@@H]3CCC4=CC(=O)CC[C@]4(C)[C@H]3CC[C@]12C)C1CCCC1.O=C(O)C(F)(F)F [20e]	> 168	> 168	10.7 ± 0.15	10.7	34	1.74	1.74	1.74	76%	3.09	4.02	> 10000			half-life at 1 mg/mL [1, 7]: > 168 h; half-life at 1 mg/mL [2, 10]: 10.7 h; half-life at 3 µM [3, 15]: 1.74 h; remaining at 2 h, 3 µM [3]: 34%; half-life at 3 µM [4, 16]: 4.02 h
CNCCN(CCN1CCOCC1)C(=O)O/N=C(\C)[C@H]1CC[C@H]2[C@@H]3CCC4=CC(=O)CC[C@]4(C)[C@H]3CC[C@]12C.O=C(O)C(F)(F)F [20j]	99.4	99.4	21.77 ± 0.19	21.8								> 10000			half-life at 1 mg/mL [1, 7]: 99.4 h; half-life at 1 mg/mL [2, 10]: 21.8 h
C/C(=N\OC(=O)N(C)[C@H](C)[C@@H]1CCCN1)[C@H]1CC[C@H]2[C@@H]3CCC4=CC(=O)CC[C@]4(C)[C@H]3CC[C@]12C.O=C(O)C(F)(F)F [20p]						0.61									Prodrug stability / self-immolation in buffer, in words [3]: unstable compound; t1/2 in human plasma at 37 °C (Tables S10-S13, S18) ([4]; 3 µM, LC-MS/MS): unstable during; Stability in aqueous media during solubility assessment, in words [5]: poor stability
CNC1(CN(C)C(=O)O/N=C(\C)[C@H]2CC[C@H]3[C@@H]4CCC5=CC(=O)CC[C@]5(C)[C@H]4CC[C@]23C)CC1 [20s]					93	18.5		18.5	stable		> 24	> 10000			Prodrug stability / self-immolation in buffer, in words [3]: complete inhibition of cyclization; Half-life (t½) Plasma 37°C ([4]; LC-MS/MS): stable; half-life at 3 µM [4, 16]: > 24 h
C/C(=N\OC(=O)N(CCN)CCN)[C@H]1CC[C@H]2[C@@H]3CCC4=CC(=O)CC[C@]4(C)[C@H]3CC[C@]12C [20w]	> 168	> 168	10.1 ± 0.41	10.1								> 10000			
CNCCN(CCNC)C(=O)O/N=C(\C)[C@H]1CC[C@H]2[C@@H]3CCC4=CC(=O)CC[C@]4(C)[C@H]3CC[C@]12C.Cl.Cl [20x]	72.2	> 168	1.51 ± 0.05	1.51											Stability in aqueous media during solubility assessment, in words [5]: poor stability
CNCCN(C)C(=O)O/N=C(\C)[C@H]1CC[C@H]2[C@@H]3CCC4C[C@H](O)CC[C@]4(C)[C@H]3CC[C@]12C.O=C(O)C(F)(F)F (stereo partly shown) [21a]					88		9.51	12.2	13%	1.27	0.59	> 5000	12.2	0.59	
CNCCN(C(=O)O/N=C(\C)[C@H]1CC[C@H]2[C@@H]3CCC4C[C@H](O)CC[C@]4(C)[C@H]3CC[C@]12C)C1CC1.O=C(O)C(F)(F)F (stereo partly shown) [21b]					73		4.08	4.08	16%	0.73	0.73	> 5000	4.08	0.73	
CNCCN(C(=O)O/N=C(\C)[C@H]1CC[C@H]2[C@@H]3CCC4C[C@H](O)CC[C@]4(C)[C@H]3CC[C@]12C)C(C)C.O=C(O)C(F)(F)F (stereo partly shown) [21c]					68		3.78	3.78	16%	0.51	0.76	> 5000	3.78	0.51	
CNCCN(C(=O)O/N=C(\C)[C@H]1CC[C@H]2[C@@H]3CCC4C[C@H](O)CC[C@]4(C)[C@H]3CC[C@]12C)C1CCC1.O=C(O)C(F)(F)F (stereo partly shown) [21d]					38		1.69	1.69	16%	0.76	0.76	> 5000	1.69	0.76	
CNCCN(CCn1ccnc1)C(=O)O/N=C(\C)[C@H]1CC[C@H]2[C@@H]3CCC4C[C@H](O)CC[C@]4(C)[C@H]3CC[C@]12C (stereo partly shown) [21k]					62			4.12	14%		0.81	> 5000	4.12	0.81	
C/C(=N\OC(=O)N(C)C[C@@H]1CCCN1)[C@H]1CC[C@H]2[C@@H]3CCC4C[C@H](O)CC[C@]4(C)[C@H]3CC[C@]12C (stereo partly shown) [21l]					16		0.94	0.94	2%	0.36	0.36	> 5000	0.94	0.36	
